The text below walks through data of US20120088800A1, “2-(SUBSTITUTED) (ARYLMETHYL, ARYLOXY and ARYLTHIO))-N-(SUBSTITUTED PYRIDIN-2-YL)-2-(SUBSTITUTED ARYL) COMPOUNDS AS SUBTYPE-SELECTIVE MODULATORS OF SPHINGOSINE-1-PHOSPHATE-3 (S1P3) RECEPTORS” (ALLERGAN, INC., priority 2009, published 2012).

Structures are written as SMILES. Counter-ions that a name gives are not always drawn.

Common to all, as to type: cell-based
One assay deals with T1, S1P3 (Homo sapiens, UniProt Q99500).
T1 construct: expressed in transfected cells
T1 sequence (Q99500 whole entry, species assumed): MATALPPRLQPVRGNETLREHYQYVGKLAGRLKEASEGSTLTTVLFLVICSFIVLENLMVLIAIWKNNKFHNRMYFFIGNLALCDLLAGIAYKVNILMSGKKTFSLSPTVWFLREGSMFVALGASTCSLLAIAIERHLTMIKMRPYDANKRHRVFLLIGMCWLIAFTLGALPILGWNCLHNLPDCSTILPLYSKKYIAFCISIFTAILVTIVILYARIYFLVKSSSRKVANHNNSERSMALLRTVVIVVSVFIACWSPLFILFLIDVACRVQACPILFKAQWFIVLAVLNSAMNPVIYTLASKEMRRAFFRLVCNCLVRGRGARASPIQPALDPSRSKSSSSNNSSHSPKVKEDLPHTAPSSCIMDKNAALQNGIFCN
Kind of assay: FLIPR calcium assay, cells expressing S1P3 and a G-protein. To be noted: for EC50: fluo-4 calcium signal compared to sphingosine 1-phosphate, antagonist mode; for FLIPR (% Antagonism) S1P3: value in parentheses below the EC50, antagonism of sphingosine 1-phosphate signal. The source says:
(§1) Novel compounds having this general structure were synthesized and tested for sphingosine 1-phosphate receptor (S1P) activity using the FLIPR assay. Cells expressing the receptor of interest (S1P1, S1P2 or S1P3) and a G-protein (Gqi5 or G16) are loaded with fluo-4, a calcium sensitive dye. After removal of excess dye by washing, the cells are placed in the FLIPR TETRA instrument. Baseline fluorescence readings are taken prior to addition the compound to be tested. Agonists will trigger the receptor to interact with the G-protein, leading to an increase in intracellular calcium. The increase in intracellular calcium causes an increase in the fluorescence of the cells, due to the presence of fluo-4. This fluorescence increase is recorded by the FLIPR TETRA. After the calcium transient signal has decreased towards baseline, the standard agonist sphingosine 1-phosphate is added. If the test compound is an antagonist, an initial calcium signal will not be generated and the antagonist will prevent the generation of a calcium signal from sphingosine 1-phosphate. The level of fluorescence is compared to that of sphingosine 1-phosphate, and the EC50 or IC50 of the compound determined by curve fitting.

In a further assay the target is T2, S1P2 (Homo sapiens, UniProt O95136).
T2 construct: expressed in transfected cells
T2 sequence (O95136 whole entry, species assumed): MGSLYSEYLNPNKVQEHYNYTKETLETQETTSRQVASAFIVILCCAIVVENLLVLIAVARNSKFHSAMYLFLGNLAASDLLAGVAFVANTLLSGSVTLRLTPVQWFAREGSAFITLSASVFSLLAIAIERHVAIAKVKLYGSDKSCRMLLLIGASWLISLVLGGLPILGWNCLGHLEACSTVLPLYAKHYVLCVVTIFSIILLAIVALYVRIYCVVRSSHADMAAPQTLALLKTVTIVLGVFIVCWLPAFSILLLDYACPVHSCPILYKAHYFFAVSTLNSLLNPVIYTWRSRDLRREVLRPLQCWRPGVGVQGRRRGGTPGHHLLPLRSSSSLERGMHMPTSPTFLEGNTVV
Description: FLIPR calcium assay, cells expressing S1P2 and a G-protein. To be noted: fluo-4 calcium signal compared to sphingosine 1-phosphate.
Description: as §1

The target of another assay is T3, S1P1 (Homo sapiens, UniProt P21453).
T3 construct: expressed in transfected cells
T3 sequence (P21453 whole entry, species assumed): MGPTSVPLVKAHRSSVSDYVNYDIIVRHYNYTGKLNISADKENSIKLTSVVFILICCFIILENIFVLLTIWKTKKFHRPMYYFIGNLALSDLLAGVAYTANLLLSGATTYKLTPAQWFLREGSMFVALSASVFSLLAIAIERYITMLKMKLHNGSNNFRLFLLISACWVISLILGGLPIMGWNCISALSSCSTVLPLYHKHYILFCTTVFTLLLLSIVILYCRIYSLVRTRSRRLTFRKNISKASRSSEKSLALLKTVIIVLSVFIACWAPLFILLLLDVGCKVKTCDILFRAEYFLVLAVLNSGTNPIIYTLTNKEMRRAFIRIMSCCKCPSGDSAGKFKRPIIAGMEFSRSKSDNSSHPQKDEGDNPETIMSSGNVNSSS
Description: FLIPR calcium assay, cells expressing S1P1 and a G-protein. To be noted: fluo-4 calcium signal compared to sphingosine 1-phosphate.
Description: as §1

For orientation: EC50 means the concentration giving half of the maximal effect. As for `O=C(Nc1ccc(Cl)cn1)C(Sc1ccc(Cl)cc1)c1ccc(F)cc1` (stereo not shown) [Example 26, 2-(4-chlorophenylthio)-N-(5-chloropyridin-2-yl)-2-(4-fluorophenyl)acetamide], the EC50 on S1P3 is 166 nM; at S1P2, more than 8300 nM; at S1P1 it was more than 8300 nM. For the same compound, the “FLIPR (% Antagonism) S1P3” value on S1P3 is listed as “(102) %”.

Consider `O=C(Nc1ccc(Br)cn1)C(Sc1ccc(F)cc1)c1ccc(Cl)cc1` (stereo not shown) [Example 14, N-(5-bromopyridin-2-yl)-2-(4-chlorophenyl)-2-(4-fluorophenylthio)acetamide hydrochloride], for which the figures for the EC50 on S1P3, on S1P2 and at S1P1 were 127 nM, more than 8300 nM and more than 8300 nM, respectively. At S1P3, the “FLIPR (% Antagonism) S1P3” value is listed as “(99) %”.

On to `O=C(Nc1ccc(Br)cn1)C(Sc1ccccc1)c1ccccc1` (stereo not shown) [Example 10, N-(5-bromopyridin-2-yl)-2-phenyl-2-(phenylthio)acetamide hydrochloride], for which the EC50 on S1P3 is 256 nM; at S1P2 it was more than 8300 nM; at S1P1 it was more than 8300 nM. Moreover, the “FLIPR (% Antagonism) S1P3” value on S1P3 is “(100) %”.

As for `Cc1ccc(NC(=O)C(Cc2ccccc2)c2ccccc2)nc1` (stereo not shown) [Example 32, N-(5-methylpyridin-2-yl)-2,3-diphenylpropanamide hydrochloride], the EC50 on S1P3 is 725 nM; on S1P2, more than 8300 nM; on S1P1 it was more than 8300 nM. On S1P3, the “FLIPR (% Antagonism) S1P3” value was “(99) %”.

Take `O=C(Nc1ccc(Br)cn1)C(c1ccc(Cl)cc1)c1ccc(Cl)cc1` [Example 33, N-(5-bromopyridin-2-yl)-2,2-bis(4-chlorophenyl)acetamide]: the EC50 is 1720 nM at S1P3, more than 8300 nM at S1P2 and more than 8300 nM on S1P1. The “FLIPR (% Antagonism) S1P3” value at S1P3 is recorded as “(94) %”.

In the case of `COc1ccc(SC(C(=O)Nc2ccc(Cl)cn2)c2ccc(Cl)cc2)cc1` (stereo not shown) [Example 12, 2-(4-chlorophenyl)-N-(5-chloropyridin-2-yl)-2-(4-methoxyphenylthio)acetamide hydrochloride], the results for the 50% effective concentration (EC50) on S1P3, at S1P2 and on S1P1 were 376 nM, more than 8300 nM and more than 8300 nM, respectively. For the same compound, the “FLIPR (% Antagonism) S1P3” value on S1P3 was “(99) %”.

`O=C(Nc1ccc(Cl)cn1)C(Sc1cccc(Cl)c1)c1ccccc1` (stereo not shown) [Example 21, 2-(3-chlorophenylthio)-N-(5-chloropyridin-2-yl)-2-phenylacetamide hydrochloride]: the EC50 at S1P3 was 208 nM; at S1P2, more than 8300 nM; on S1P1, more than 8300 nM. Moreover, the “FLIPR (% Antagonism) S1P3” value on S1P3 is “(97) %”.

Consider `Cl.O=C(Nc1ccc(Cl)cn1)C(Oc1ccc(Br)cc1)c1ccc(Cl)cc1` (stereo not shown) [Example 6, 2-(4-bromophenoxy)-2-(4-chlorophenyl)-N-(5-chloropyridin-2-yl)acetamide hydrochloride], for which the EC50 at S1P3 is 103 nM; at S1P2 it was more than 8300 nM; on S1P1 it was more than 8300 nM. Besides, on S1P3, the “FLIPR (% Antagonism) S1P3” value is “(97) %”.

Take `Cl.O=C(Nc1ccc(Cl)cn1)C(Oc1ccc(Cl)cc1)c1ccc(Cl)cc1` (stereo not shown) [Example 9, 2-(4-chlorophenoxy)-2-(4-chlorophenyl)-N-(5-chloropyridin-2-yl)acetamide hydrochloride]: the EC50 at S1P3 was 27 nM; at S1P2, more than 8300 nM; on S1P1, more than 8300 nM. In addition, the “FLIPR (% Antagonism) S1P3” value on S1P3 is “(97) %”.

Consider `Cc1nc(NC(=O)C(Cc2ccccc2)c2ccccc2)ccc1Br` (stereo not shown) [Example 31, N-(5-bromo-6-methylpyridin-2-yl)-2,3-diphenylpropanamide hydrochloride], for which the EC50 is 201 nM at S1P3, more than 8300 nM on S1P2 and more than 8300 nM on S1P1. Moreover, the “FLIPR (% Antagonism) S1P3” value at S1P3 was “(100) %”.

For the compound `O=C(Nc1ccc(I)cn1)C(Sc1ccccc1)c1ccccc1` (stereo not shown) [Example 28, N-(5-iodopyridin-2-yl)-2-phenyl-2-(phenylthio)acetamide], the EC50 is 310 nM on S1P3, more than 8300 nM on S1P2 and more than 8300 nM on S1P1. At S1P3, the “FLIPR (% Antagonism) S1P3” value was “(101) %”.

In the case of `COc1ccc(SC(C(=O)Nc2ccc(Br)cn2)c2ccc(Cl)cc2)cc1.Cl` (stereo not shown) [Example 11, N-(5-bromopyridin-2-yl)-2-(4-chlorophenyl)-2-(4-methoxyphenylthio)acetamide hydrochloride], the EC50 at S1P3 was 361 nM; at S1P2 it was more than 8300 nM; at S1P1 it was more than 8300 nM. For the same compound, the “FLIPR (% Antagonism) S1P3” value on S1P3 is “(100) %”.

Consider `Cc1ccc(SC(C(=O)Nc2ccc(Cl)cn2)c2ccc(Cl)cc2)cc1C` (stereo not shown) [Example 15, 2-(4-chlorophenyl)-N-(5-chloropyridin-2-yl)-2-(3,4-dimethylphenylthio)acetamide hydrochloride], for which the EC50 on S1P3 is 240 nM; on S1P2, more than 8300 nM; at S1P1, more than 8300 nM. For the same compound, the “FLIPR (% Antagonism) S1P3” value at S1P3 is “(98) %”.

Turning to `Cl.O=C(Nc1ccc(Br)cn1)C(Oc1ccc(Br)cc1)c1ccc(Cl)cc1` (stereo not shown) [Example 5, 2-(4-bromophenoxy)-N-(5-bromopyridin-2-yl)-2-(4-chlorophenyl)acetamide hydrochloride], the EC50 is 90 nM at S1P3, more than 8300 nM on S1P2 and more than 8300 nM at S1P1. For the same compound, at S1P3, the “FLIPR (% Antagonism) S1P3” value is “(97) %”.

As for `O=C(Nc1ccc(Br)cn1)C(Sc1ccc(Cl)cc1)c1ccc(Cl)cc1` (stereo not shown) [Example 22, N-(5-bromopyridin-2-yl)-2-(4-chlorophenyl)-2-(4-chlorophenylthio)acetamide hydrochloride], the concentration giving a half-maximal response (EC50) is 104 nM at S1P3, more than 8300 nM at S1P2 and more than 8300 nM on S1P1. Further, the “FLIPR (% Antagonism) S1P3” value at S1P3 is reported as “(97) %”.

For `Cl.O=C(Nc1ccc(F)cn1)C(Oc1ccc(Br)cc1)c1ccc(Cl)cc1` (stereo not shown) [Example 4, 2-(4-bromophenoxy)-2-(4-chlorophenyl)-N-(5-fluoropyridin-2-yl)acetamide hydrochloride], the values for the 50% effective concentration (EC50) at S1P3, on S1P2 and at S1P1 were 325 nM, more than 8300 nM and more than 8300 nM, respectively. For the same compound, the “FLIPR (% Antagonism) S1P3” value on S1P3 is given as “(97) %”.

As for `O=C(Nc1ccc(Cl)cn1)C(Sc1ccc(Br)cc1)c1ccccc1` (stereo not shown) [Example 24, 2-(4-bromophenylthio)-N-(5-chloropyridin-2-yl)-2-phenylacetamide], the concentration for a half-maximal effect (EC50) was 230 nM at S1P3, more than 8300 nM at S1P2 and more than 8300 nM on S1P1. Besides, the “FLIPR (% Antagonism) S1P3” value on S1P3 is “(99) %”.

For `O=C(Nc1ccc(Cl)cn1)C(Sc1ccc(F)cc1)c1ccc(Cl)cc1` (stereo not shown) [Example 13, 2-(4-chlorophenyl)-N-(5-chloropyridin-2-yl)-2-(4-fluorophenylthio)acetamide hydrochloride], the EC50 on S1P3 was 198 nM; on S1P2, more than 8300 nM; at S1P1, more than 8300 nM. At S1P3, the “FLIPR (% Antagonism) S1P3” value is “(99) %”.

`Cl.O=C(Nc1ccc(Br)cn1)C(Oc1ccc(Cl)cc1)c1ccc(Cl)cc1` (stereo not shown) [Example 8, N-(5-bromopyridin-2-yl)-2-(4-chlorophenoxy)-2-(4-chlorophenyl)acetamide hydrochloride]: the half-maximal effective concentration (EC50) at S1P3 is 15 nM; at S1P2 it was more than 8300 nM; at S1P1 it was more than 8300 nM. For the same compound, on S1P3, the “FLIPR (% Antagonism) S1P3” value is on record as “(97) %”.

Regarding `O=C(Nc1ccc(Br)cn1)C(Sc1ccc(Br)cc1)c1ccccc1` (stereo not shown) [Example 25, 2-(4-bromophenylthio)-N-(5-bromopyridin-2-yl)-2-phenylacetamide], the EC50 at S1P3 is 286 nM; on S1P2 it was more than 8300 nM; on S1P1 it was more than 8300 nM. In addition, the “FLIPR (% Antagonism) S1P3” value at S1P3 was “(99) %”.

For the compound `Cl.O=C(Nc1ccc(F)cn1)C(Oc1ccc(Cl)cc1)c1ccc(Cl)cc1` (stereo not shown) [Example 7, 2-(4-chlorophenoxy)-2-(4-chlorophenyl)-N-(5-fluoropyridin-2-yl)acetamide hydrochloride], the EC50 on S1P3 was 316 nM; at S1P2 it was more than 8300 nM; at S1P1 it was more than 8300 nM. Also, at S1P3, the “FLIPR (% Antagonism) S1P3” value is reported as “(97) %”.

As to `N#Cc1ccc(NC(=O)C(Cc2ccccc2)c2ccccc2)nc1` (stereo not shown) [Example 34, N-(5-cyanopyridin-2-yl)-2,3-diphenylpropanamide hydrochloride], the results for the EC50 at S1P3, at S1P2 and on S1P1 were 1500 nM, more than 8300 nM and more than 8300 nM, respectively. Besides, the “FLIPR (% Antagonism) S1P3” value at S1P3 is recorded as “(52) %”.

Consider `O=C(Nc1ccc(Cl)cn1)C(Sc1ccc(Cl)cc1)c1ccccc1` (stereo not shown) [Example 27, 2-(4-chlorophenylthio)-N-(5-chloropyridin-2-yl)-2-phenylacetamide], for which the EC50 at S1P3 is 160 nM; on S1P2, more than 8300 nM; at S1P1 it was more than 8300 nM. At S1P3, the “FLIPR (% Antagonism) S1P3” value is listed as “(101) %”.

`Cc1cc(OC(C(=O)Nc2ccc(Cl)cn2)c2ccc(Cl)cc2)ccc1Cl.Cl` (stereo not shown) [Example 1, 2-(4-chloro-3-methylphenoxy)-2-(4-chlorophenyl)-N-(5-chloropyridin-2-yl)acetamide hydrochloride]: the 50% effective concentration (EC50) on S1P3 was 128 nM; at S1P2, more than 8300 nM; on S1P1 it was more than 8300 nM. Besides, the “FLIPR (% Antagonism) S1P3” value at S1P3 is recorded as “(99) %”.

As to `Cc1ccc(SC(C(=O)Nc2ccc(Br)cn2)c2ccc(Cl)cc2)cc1` (stereo not shown) [Example 16, N-(5-bromopyridin-2-yl)-2-(4-chlorophenyl)-2-(p-tolylthio)acetamide hydrochloride], the EC50 is 256 nM on S1P3, more than 8300 nM on S1P2 and more than 8300 nM at S1P1. Besides, the “FLIPR (% Antagonism) S1P3” value on S1P3 is “(100) %”.
